Results from paper PMC10762035, “Molecular basis of human trace amine-associated receptor 1 activation” (Nature Communications, 2024).
Positions count from the first letter of the chain named. Values joined by “and” are separate entries in the source; they are usually repeats but may differ in a detail not shown here. Identical values can stand only once.

Legend:
Format in all cases: cell-based
[1] = molecular target: T1, hTA1 b2N (Homo sapiens, UniProt Q96RJ0); assay: GloSensor cAMP accumulation assay, b2N construct; conditions: b2N, n=2
T1 construct: read by me as the first 25 residues of β2AR (N); expressed in transfected cells; host or cells: HEK293T
T1 sequence (Q96RJ0 with tags, fused parts or gaps): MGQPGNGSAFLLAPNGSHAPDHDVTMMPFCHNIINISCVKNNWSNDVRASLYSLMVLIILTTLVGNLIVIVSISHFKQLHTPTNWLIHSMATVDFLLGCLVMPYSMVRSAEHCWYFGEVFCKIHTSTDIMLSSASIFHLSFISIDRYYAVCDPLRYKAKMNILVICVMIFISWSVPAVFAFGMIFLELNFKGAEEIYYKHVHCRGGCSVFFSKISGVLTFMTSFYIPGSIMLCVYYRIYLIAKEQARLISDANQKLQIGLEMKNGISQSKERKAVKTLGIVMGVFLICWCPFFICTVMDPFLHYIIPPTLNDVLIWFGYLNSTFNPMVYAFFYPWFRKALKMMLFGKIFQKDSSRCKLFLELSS

[2] = molecular target: T2, hTA1 C96S (Homo sapiens, UniProt Q96RJ0, C96S); assay: GloSensor cAMP accumulation assay, C96S mutant; conditions: log[Compound]
T2 construct: expressed in transfected cells; host or cells: HEK293T
T2 sequence (Q96RJ0 1-339 C96S): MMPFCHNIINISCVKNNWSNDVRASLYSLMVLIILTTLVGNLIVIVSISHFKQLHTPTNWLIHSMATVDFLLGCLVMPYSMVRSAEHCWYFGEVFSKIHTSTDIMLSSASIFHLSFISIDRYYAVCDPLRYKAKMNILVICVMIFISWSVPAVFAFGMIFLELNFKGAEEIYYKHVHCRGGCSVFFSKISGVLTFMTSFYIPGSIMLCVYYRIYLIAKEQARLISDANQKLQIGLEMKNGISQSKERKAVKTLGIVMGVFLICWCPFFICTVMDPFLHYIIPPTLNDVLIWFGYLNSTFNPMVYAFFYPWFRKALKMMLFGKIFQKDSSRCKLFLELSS

[3] = molecular target: T3, hTA1 C178S (Homo sapiens, UniProt Q96RJ0, C178S); assay: GloSensor cAMP accumulation assay, C178S mutant; conditions: for C178S - Normalized Luminescence Counts (N=2): log[Compound], single replicates
T3 construct: expressed in transfected cells; host or cells: HEK293T
T3 sequence (Q96RJ0 1-339 C178S): T2 sequence (Q96RJ0 1-339 C96S) with S96C, C178S

[4] = molecular target: T4, hTA1 S107C (Homo sapiens, UniProt Q96RJ0, S107C); assay: GloSensor cAMP accumulation assay, S107C mutant;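 further: cells transiently co-expressing receptor and GloSensor biosensor, luminescence read after 30 min agonist exposure at room temperature, concentration-response fitted by nonlinear regression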
T4 construct: expressed in transfected cells; host or cells: HEK293T
T4 sequence (Q96RJ0 1-339 S107C): T2 sequence (Q96RJ0 1-339 C96S) with S96C, S107C

[5] = molecular target: T5, hTA1 V184P (Homo sapiens, UniProt Q96RJ0, V184P); assay: GloSensor cAMP accumulation assay, V184P mutant; conditions: for cAMP accumulation response, single replicate values (source data, Supplementary Figure 5): hTA1 V184P (N=2), log[Compound]
T5 construct: expressed in transfected cells; host or cells: HEK293T
T5 sequence (Q96RJ0 1-339 V184P): T2 sequence (Q96RJ0 1-339 C96S) with S96C, V184P

[6] = C178S, each row one experiment (N=2), 3 replicates
[7] = hTA1 V184P mutant minus WT average

NCCc1ccccc1 [β-PEA, β-phenethylamine]
Span ± SEM (Emax normalized to β-PEA) [1]: 100 ± 3.11 | pEC50 ± SEM [1]: 7.59 ± 0.07 | EC50 ([1]; read-out: EC50): 25.4 nM | Normalized Luminescence Counts ([2]; C96S, M = -5, single replicates (N=2)): 35.6736 and 42.2638 and 54.1262 and 8.922 and 12.7948 and 20.5413 | Normalized Luminescence Counts ([2]; C96S, M = -5.522, single replicates (N=2)): 25.7883 and 20.5161 and 22.4932 and 16.6681 and -2.698 and 8.922 | Normalized Luminescence Counts ([2]; C96S, M = -6, single replicates (N=2)): 12.6079 and 10.6308 and 7.995 and -2.698 (2×) and 5.048 | Normalized Luminescence Counts ([2]; C96S, M = -6.522, single replicates (N=2)): 0.7455 (2×) and 3.382 and 1.175 and -6.571 (2×) | Normalized Luminescence Counts ([2]; C96S, M = -7, single replicates (N=2)): 0.7455 and -1.232 and -0.5726 and -2.698 (2×) and -6.571 | Normalized Luminescence Counts ([2]; C96S, M = -7.522, single replicates (N=2)): -0.5726 and -1.891 and 0.08646 and -4.6346 (2×) and -6.571 | Normalized Luminescence Counts ([2]; C96S, M = -8, single replicates (N=2)): 2.064 and 0.7455 and -0.5726 and 1.175 and 6.985 and 5.048 | Normalized Luminescence Counts ([2]; C96S, M = -8.522, single replicates (N=2)): 2.723 and -1.232 and -1.891 and 6.985 and 1.175 and 8.922 | Normalized Luminescence Counts ([2]; C96S, M = -9, single replicates (N=2)): -0.5726 and 0.08646 and -1.232 and 10.8582 and 1.175 and -0.7614 | Normalized Luminescence Counts ([2]; C96S, M = -9.522, single replicates (N=2)): 2.064 and -3.209 and -1.232 and -2.698 (2×) and 3.112 | Normalized Luminescence Counts ([2]; C96S, M = -10, single replicates (N=2)): 0.08646 and -0.5726 and -1.232 and -8.508 and -2.698 and -0.7614 | Normalized Luminescence Counts ([2]; C96S, M = -10.522, single replicates (N=2)): 4.7 and -1.232 and -1.891 and -10.4444 and -0.7614 and -2.698 | Normalized Luminescence Counts ([2]; C96S, M = -11, single replicates (N=2)): 2.723 and -0.5726 and 0.7455 and -10.4444 and 3.112 and 1.175 | Normalized Luminescence Counts ([2]; C96S, M = -11.522, single replicates (N=2)): 0.08646 and 2.064 and -2.55 and -10.4444 | Normalized Luminescence Counts ([2]; M = -11.522, single replicates, mutant block above C178S): -0.6791 and -0.9294 and -0.1556 and 1.551 and 0.7492 and 1.23 | Normalized Luminescence Counts ([2]; M = -12, single replicates, mutant block above C178S): -0.6108 and -0.9294 and -0.5425 and 1.07 and 0.8561 and 1.283 | Normalized Luminescence Counts ([2]; M = -12.522, single replicates, mutant block above C178S): -0.7929 and -0.6336 and -1.02 and 1.337 and 1.283 and 0.8561 | pEC50 values, Mean [3, 6]: 7.235 and 7.223 | ΔpEC50 values (each mutant value - WT average), Mean [3, 6]: 0.1416 and 0.1292 | Span ± SEM (Emax normalized to β-PEA) ([3]; C178S, n=2): 100 ± 2.97 | pEC50 ± SEM ([3]; C178S, n=2): 7.23 ± 0.07 | EC50 ([3]; C178S, n=2, read-out: EC50): 59 nM | Emax values, Mean ([3]; C178S, β-PEA = 100, each row one experiment (N=2), 3 replicates): 100 | C178S - Normalized Luminescence Counts (N=2) ([3]; M = -5): 99.3155 and 106.699 and 98.2875 and 86.7589 and 74.9716 and 83.1688 | C178S - Normalized Luminescence Counts (N=2) ([3]; M = -5.522): 92.9136 and 85.3902 and 85.0163 and 113.744 and 82.4209 and 115 | C178S - Normalized Luminescence Counts (N=2) ([3]; M = -6): 105.577 and 101.792 and 96.652 and 125.741 and 90.4686 and 124.155 | C178S - Normalized Luminescence Counts (N=2) ([3]; M = -6.522): 93.1473 and 96.0445 and 75.0162 and 77.2154 and 68.719 and 87.1478 | C178S - Normalized Luminescence Counts (N=2) ([3]; M = -7): 68.3806 and 62.1189 and 51.4645 and 64.3212 and 56.124 and 61.3594 | C178S - Normalized Luminescence Counts (N=2) ([3]; M = -7.522): 36.8382 and 29.782 and 30.7166 and 32.2204 and 27.7927 and 32.0708 | C178S - Normalized Luminescence Counts (N=2) ([3]; M = -8): 16.2772 and 19.3614 and 14.922 and 22.976 and 17.1422 and 19.9245 | C178S - Normalized Luminescence Counts (N=2) ([3]; M = -8.522): 3.333 and 3.193 and 2.959 and 9.783 and 5.445 and 7.24 | C178S - Normalized Luminescence Counts (N=2) ([3]; M = -9): 1.604 and 3.099 and 1.838 and 2.393 and 2.184 and 1.825 | C178S - Normalized Luminescence Counts (N=2) ([3]; M = -9.522): 0.7163 and 0.2957 and -0.07812 and 1.615 and 0.2691 and 1.107 | C178S - Normalized Luminescence Counts (N=2) ([3]; M = -10): 1.791 and 0.9967 and 1.277 and -3.171 and -1.3464 and -0.5985 | C178S - Normalized Luminescence Counts (N=2) ([3]; M = -10.522): -0.5454 and 0.763 and 0.06206 and -2.244 and -1.825 and -1.7054 | C178S - Normalized Luminescence Counts (N=2) ([3]; M = -11): 0.1088 and 0.5294 and -0.07812 and 0.3289 and 0.7777 and -1.376 | C178S - Normalized Luminescence Counts (N=2) ([3]; M = -11.522): 1.37 and -0.1716 and -0.2183 and -0.6583 and -1.287 and 0.3289 | C178S - Normalized Luminescence Counts (N=2) ([3]; M = -12): -0.7791 and 0.2957 and -0.265 and -2.932 and -0.03006 and 1.645 | C178S - Normalized Luminescence Counts (N=2) ([3]; M = -12.522): -0.452 and -1.34 and -0.6856 and -1.915 and -0.9575 and -0.4489 | ΔEmax values (each mutant value - WT average) ([4]; S107C mutant minus WT average): 0 | Emax values, Mean ([4]; S107C mutant, β-PEA = 100, each line an independent experiment, 3 replicates): 100 | Span ± SEM (Emax normalized to β-PEA) ([4]; S107C, n=2): 100 ± 3.55 | pEC50 ± SEM ([4]; S107C, n=2): 6.69 ± 0.71 | EC50 ([4]; S107C, n=2, read-out: EC50): 205 nM | reduction in potency vs wild type ([5]; V184P): 3 fold | Span ± SEM (Emax normalized to β-PEA) ([5]; V184P, n=2): 100 ± 1.96 | pEC50 ± SEM ([5]; V184P, n=2): 6.49 ± 0.04 | EC50 ([5]; V184P, n=2, read-out: EC50): 321 nM | cAMP accumulation response, single replicate values (source data, Supplementary Figure 5) ([5]; M = -5): 83.3536 and 92.5674 and 99.6475 and 104.399 and 96.8854 and 100.441 | cAMP accumulation response, single replicate values (source data, Supplementary Figure 5) ([5]; M = -5.522): 95.962 and 88.397 and 84.7115 and 96.8487 and 73.2445 and 97.875 | cAMP accumulation response, single replicate values (source data, Supplementary Figure 5) ([5]; M = -6): 78.5043 and 69.7754 and 70.1634 and 94.7595 and 71.9984 and 76.7632 | cAMP accumulation response, single replicate values (source data, Supplementary Figure 5) ([5]; M = -6.522): 42.813 and 37.5757 and 33.5992 and 65.1077 and 56.2745 and 55.2115 | cAMP accumulation response, single replicate values (source data, Supplementary Figure 5) ([5]; M = -7): 14.3957 and 16.7234 and 14.2987 and 30.7277 and 25.9995 and 32.4504 | cAMP accumulation response, single replicate values (source data, Supplementary Figure 5) ([5]; M = -7.522): 8.4795 and 4.503 and 3.727 and 12.5114 and 6.1339 and 9.909 | cAMP accumulation response, single replicate values (source data, Supplementary Figure 5) ([5]; M = -8): 2.078 and 0.1386 and 0.7205 and 5.731 and 6.5 and 4.265 | cAMP accumulation response, single replicate values (source data, Supplementary Figure 5) ([5]; M = -8.522): 1.496 and -0.05538 and 0.3326 and 2.249 and 1.809 and 2.505 | cAMP accumulation response, single replicate values (source data, Supplementary Figure 5) ([5]; M = -9): 1.011 and 0.1386 (2×) and 2.652 and -0.3902 and 1.626 | cAMP accumulation response, single replicate values (source data, Supplementary Figure 5) ([5]; M = -9.522): 0.7205 and -0.2494 and 0.4296 and -0.02371 and -1.123 and -0.1703 | cAMP accumulation response, single replicate values (source data, Supplementary Figure 5) ([5]; M = -10): 1.205 and -0.05538 and 0.3326 and -0.207 and -0.5002 and 0.4161 | cAMP accumulation response, single replicate values (source data, Supplementary Figure 5) ([5]; M = -10.522): 0.8175 and 0.6235 and -0.1524 and -0.3169 and -1.27 and -0.6101 | cAMP accumulation response, single replicate values (source data, Supplementary Figure 5) ([5]; M = -11): 0.04161 and -0.4433 and -0.1524 and 0.5261 and 0.1229 and -0.4269 | cAMP accumulation response, single replicate values (source data, Supplementary Figure 5) ([5]; M = -11.522): 1.205 and 0.1386 and 0.2356 and 0.7826 and 0.5261 and 0.3062 | cAMP accumulation response, single replicate values (source data, Supplementary Figure 5) ([5]; M = -12): 0.8175 (3×) and -0.3902 and -0.5735 and 0.0496 | cAMP accumulation response, single replicate values (source data, Supplementary Figure 5) ([5]; M = -12.522): 2.175 and 1.496 and 1.205 and 0.08625 and 0.1962 and -0.7201 | ΔEmax values (each mutant value - WT average), Mean [5, 7]: 0 | ΔpEC50 values (each mutant value - WT average), Mean [5, 7]: -0.7478 and -0.4527 | pEC50 values, Mean ([5]; hTA1 V184P mutant, Figure 3B source data, each grid row a separate experiment, 3 replicates): 6.346 and 6.641 | Emax values, Mean ([5]; hTA1 V184P mutant, β-PEA set to 100, each grid row a separate experiment, 3 replicates): 100
